{
  "source": "patent US3993756A",
  "about": "“Antilipemic agent containing a soybean oil fraction” (priority 1975, dated 1976)",
  "origin": "cited, not measured here",
  "key": {"[1]": {"test_system": "cholesterol level in blood serum", "settings": "for effect on cholesterol level in blood serum: in vivo"}, "[2]": {"settings": "in vivo"}},
  "data": [
    {"smiles": "CC[C@H](/C=C/[C@@H](C)[C@H]1CC[C@H]2[C@@H]3CC=C4C[C@@H](O)CC[C@]4(C)[C@H]3CC[C@]12C)C(C)C", "note": "[stigmasterol]", "values": [
      {"measurement": "effect on cholesterol level in blood serum", "setting": "[1]", "result": "effective for lowering the cholesterol level in blood serum"}
    ]},
    {"smiles": "CC[C@H](CC[C@@H](C)[C@H]1CC[C@H]2[C@@H]3CC=C4C[C@@H](O)CC[C@]4(C)[C@H]3CC[C@]12C)C(C)C", "note": "[β-sitosterol]", "values": [
      {"measurement": "absorption by the body", "setting": "[2]", "result": "low absorption"},
      {"measurement": "liver or kidney troubles", "setting": "[1]; 20 to 30 g per day, long periods", "result": "inviting liver or kidney troubles"},
      {"measurement": "effect on cholesterol level in blood serum", "setting": "[1]", "result": "effective for lowering the cholesterol level in blood serum"}
    ]}
  ]
}
